Measured values reported in patent publication US6399570B1, “Antimicrobial/endotoxin neutralizing polypeptide” (priority 1999, dated 2002).

System: Lipid A
Assay: Limulus ELISA, ENC50 against Lipid A
Assay type: biochemical, E. coli K12
Protocol: The peptide-mediated inhibition of endotoxin-induced Limulus amebocyte lysate (LAL) coagulation was measured with a sensitive LAL assay (Zhang et al., J. Clin. Microbiol. 32: 416-422 (1994)). Limulus ELISA is an endotoxin assay based on activation of the LAL coagulation by endotoxin and detection of the generated peptide-C immunoreactivity with an ELISA using a monoclonal antibody to the polypeptide. Endotoxin was defined to be neutralized when it lost its ability to activate the LAL enzymes. The 50% endotoxin-neutralizing concentration (ENC50) reflects the potency of an anti-endotoxin agent; a low ENC50 indicates high potency. Table 2 lists the determined ENC50 value of each anti-endotoxin agent against lipid A and four different types of LPS. The potency of each anti-endotoxin agent varied depending on the type of endotoxin. […] The only difference between the sequence of LF-33 and LF-27 is that LF-27 lacks the first six residues (GRRRRS) at the N-terminus of LF-33. Remarkably, this deletion led to dramatic loss of the endotoxin-neutralizing capacity of the polypeptide in this assay. Binding of serum proteins to endotoxin neutralizes the endotoxin activity in this assay by preventing endotoxin from activating LAL (Emancipator et al., Infect. Immun. 60: 596-601 (1992)).
LPS. […] LPS (purity >99%) from Neisseria meningitidis was prepared from the group B strain #6275 and its potency was 25 EU/ng. […] The potency of the above endotoxin was determined with the Limulus enzyme-linked immunosorbent assay (ELISA, 43) in comparison with US Pharmacopeia reference standard endotoxin EC-5.
Briefly, 25 μl endotoxin solution (200 EU/ml) was mixed with an equal volume of test materials in a series of two-fold dilution in 0.15 M NaCl in a sterile 96-well tissue culture plate (Nunc A/S, Roskilde, Denmark), and incubated at 37° C. for 1 h in a dry-air incubator. […] The endotoxin activity was then quantified with the use of Limulus ELISA (Zhang et al., J. Clin. Microbiol. 32: 416-422 (1994)). […] The high sensitivity of the assay allowed for very low levels of the endotoxin activity to be detected. […]

In the case of `CSCC[C@H](NC(=O)[C@H](CC(N)=O)NC(=O)[C@H](CCCNC(=N)N)NC(=O)[C@H](CCC(N)=O)NC(=O)[C@H](Cc1c[nH]c2ccccc12)NC(=O)[C@H](CCC(N)=O)NC(=O)[C@H](Cc1ccccc1)NC(=O)[C@H](CS)NC(=O)[C@H](CCCCN)NC(=O)[C@@H](NC(=O)[C@H](C)NC(=O)[C@H](CCC(=O)O)NC(=O)[C@@H]1CCCN1C(=O)[C@H](CCC(N)=O)NC(=O)[C@H](CO)NC(=O)[C@@H](NC(=O)[C@H](C)NC(=O)[C@H](CS)NC(=O)[C@H](Cc1c[nH]c2ccccc12)NC(=O)[C@H](CCC(N)=O)NC(=O)[C@@H](N)C(C)C)C(C)C)[C@@H](C)O)C(=O)N[C@@H](CCCNC(=N)N)C(=O)N[C@@H](CCCCN)C(=O)N[C@H](C(=O)N[C@@H](CCCNC(=N)N)C(=O)NCC(=O)N1CCC[C@H]1C(=O)O)C(C)C` [LF-27], the “fold less potent than LF-33 at neutralizing lipid A” value is reported as “approximately 10 fold” and the IC50 (endotoxin 200 EU/ml, mean +/− SD) is reported as 0.63 µM.
